# Assay results as given in patent publication US20250115598A1 (Anaxis Pharma Pty Ltd, priority 2021, published 2025).
# Experiments:
# human RIPK1 = human RIPK1 (Homo sapiens (Human), UniProt Q13546); test: KINOMEscan binding assay, human RIPK1; conditions: Table 21
# Method: (§1) Binding affinity of the test compounds for human MLKL (full length), mouse MLKL (full length), human RIPK1 and human RIPK3 was determined using the KINOMEscan™ technology developed by DiscoverX (USA; http://www.discoverx.com). The assay was conducted according to manufacturer instructions.
# (§2) Kinase assays. For most assays, kinase-tagged T7 phage strains were grown in parallel in 24-well blocks in an E. coli host derived from the BL21 strain. E. coli were grown to log-phase and infected with T7 phage from a frozen stock (multiplicity of infection=0.4) and incubated with shaking at 32° C. until lysis (90-150 minutes). The lysates were centrifuged (6,000×g) and filtered (0.2 μm) to remove cell debris. The remaining kinases were produced in HEK-293 cells and subsequently tagged with DNA for qPCR detection. […] The liganded beads were blocked with excess biotin and washed with blocking buffer (SeaBlock (Pierce), 1% BSA, 0.05% Tween 20, 1 mM DTT) to remove unbound ligand and to reduce non-specific phage binding. […] All reactions were performed in polypropylene 384-well plates in a final volume of 20 μL. […] The kinase concentration in the eluates was measured by qPCR.
# (§3) An 11-point 3-fold serial dilution of each test compound was prepared in 100% DMSO at 100× final test concentration and subsequently diluted to 1× in the assay (final DMSO concentration=1%). Most Kos were determined using a compound top concentration=30,000 nM.
# (§4) KD for each test compound was calculated with a standard dose-response curve using the Hill equation (equation (1)): […]
# (§5) The Hill Slope was set to −1.
# (§6) Curves were fitted using a non-linear least square fit with the Levenberg-Marquardt algorithm.
# human RIPK3 = human RIPK3 (Homo sapiens (Human), UniProt Q9Y572); test: KINOMEscan binding assay, human RIPK3; conditions: Table 21
# Chain of human RIPK3 (Q9Y572 whole entry): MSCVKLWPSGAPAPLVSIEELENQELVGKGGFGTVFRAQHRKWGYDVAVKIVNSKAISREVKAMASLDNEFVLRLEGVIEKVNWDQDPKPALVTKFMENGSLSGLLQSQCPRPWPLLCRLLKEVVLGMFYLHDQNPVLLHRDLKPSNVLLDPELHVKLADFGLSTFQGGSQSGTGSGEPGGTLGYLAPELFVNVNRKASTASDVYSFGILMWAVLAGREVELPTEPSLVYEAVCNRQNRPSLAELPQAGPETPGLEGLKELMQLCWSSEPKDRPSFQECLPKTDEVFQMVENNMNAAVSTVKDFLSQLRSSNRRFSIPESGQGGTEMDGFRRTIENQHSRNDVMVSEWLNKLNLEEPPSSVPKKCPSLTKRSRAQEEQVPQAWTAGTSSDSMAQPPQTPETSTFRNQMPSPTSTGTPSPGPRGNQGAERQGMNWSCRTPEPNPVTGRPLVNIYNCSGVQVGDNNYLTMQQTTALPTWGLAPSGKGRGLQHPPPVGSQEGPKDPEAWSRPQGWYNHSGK
# Method: as §1, §2, §3, §4, §5, §6
# Chain of human RIPK1 (Q13546 whole entry): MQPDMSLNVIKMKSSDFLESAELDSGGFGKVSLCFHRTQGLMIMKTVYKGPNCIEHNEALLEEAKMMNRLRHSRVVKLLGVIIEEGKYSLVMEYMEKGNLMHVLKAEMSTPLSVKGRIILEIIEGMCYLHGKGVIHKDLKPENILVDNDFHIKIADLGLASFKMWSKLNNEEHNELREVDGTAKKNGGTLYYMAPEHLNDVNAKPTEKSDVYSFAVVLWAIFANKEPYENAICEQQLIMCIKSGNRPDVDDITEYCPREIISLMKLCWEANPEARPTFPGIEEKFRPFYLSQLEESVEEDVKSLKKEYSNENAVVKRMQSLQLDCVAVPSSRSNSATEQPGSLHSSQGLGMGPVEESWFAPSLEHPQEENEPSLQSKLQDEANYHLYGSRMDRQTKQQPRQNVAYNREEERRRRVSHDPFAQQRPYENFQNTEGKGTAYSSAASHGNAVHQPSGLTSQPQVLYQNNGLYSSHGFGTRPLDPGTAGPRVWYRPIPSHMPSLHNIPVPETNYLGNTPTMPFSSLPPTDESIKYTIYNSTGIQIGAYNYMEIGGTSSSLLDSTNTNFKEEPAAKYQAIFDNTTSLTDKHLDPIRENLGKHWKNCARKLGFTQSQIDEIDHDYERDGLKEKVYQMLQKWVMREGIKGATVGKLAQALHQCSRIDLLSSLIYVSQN
Kd (human RIPK1),Kd (human RIPK3),SMILES
> 10 µM,> 10 µM,"Cc1nn(C2CCN(C)C(C)(C)C2)cc1-c1cnc(N)c2c(-c3ccc(NS(=O)(=O)C(F)F)c(O[C@@H](C)c4ccc(F)cc4)c3)nn(C)c12 (stereo partly drawn) [Compound 156, N-(4-(4-amino-1-methyl-7-(3-methyl-1-(1,2,2-trimethylpiperidin-4-yl)-1H-pyrazol-4-yl)-1H-pyrazolo[4,3-c]pyridin-3-yl)-2-((S)-1-(4-fluorophenyl)ethoxy)phenyl)-1,1-difluoromethanesulfonamide]"
> 10 µM,> 10 µM,"C[C@H](Oc1cc(-c2nn(C)c3c(-c4cnn(C5CCC(F)(F)CC5)c4)cnc(N)c23)ccc1NS(=O)(=O)C(F)F)c1ccc(F)cc1 [Compound 146, (S)-N-(4-(4-amino-7-(1-(4,4-difluorocyclohexyl)-1H-pyrazol-4-yl)-1-methyl-1H-pyrazolo[4,3-c]pyridin-3-yl)-2-(1-(4-fluorophenyl)ethoxy)phenyl)-1,1-difluoromethanesulfonamide]"
> 10 µM,> 10 µM,"C[C@H](Oc1cc(-c2nn(C)c3c(-c4cnn(C5CCN(C)C6(CC6)C5)c4)cnc(N)c23)ccc1NS(=O)(=O)C(F)F)c1ccc(F)cc1 (stereo partly drawn) [Compound 145, N-(4-(4-amino-1-methyl-7-(1-(4-methyl-4-azaspiro[2.5]octan-7-yl)-1H-pyrazol-4-yl)-1H-pyrazolo[4,3-c]pyridin-3-yl)-2-((S)-1-(4-fluorophenyl)ethoxy)phenyl)-1,1-difluoromethanesulfonamide]"
> 10 µM,> 10 µM,"C[C@H](Oc1cc(-c2nn(C)c3c(-c4cnn(C(F)(F)F)c4)cnc(N)c23)ccc1NS(=O)(=O)C(F)F)c1ccc(F)cc1 [Compound 134, (S)-N-(4-(4-amino-1-methyl-7-(1-(trifluoromethyl)-1H-pyrazol-4-yl)-1H-pyrazolo[4,3-c]pyridin-3-yl)-2-(1-(4-fluorophenyl)ethoxy)phenyl)-1,1-difluoromethanesulfonamide]"
> 10 µM,> 10 µM,"Cn1nc(-c2ccc(NS(=O)(=O)C(F)F)c(OC3(c4ccc(F)cc4)CC3)c2)c2c(N)ncc(-c3cnn(C4CCOCC4)c3)c21 [Compound 140, N-(4-(4-amino-1-methyl-7-(1-(tetrahydro-2H-pyran-4-yl)-1H-pyrazol-4-yl)-1H-pyrazolo[4,3-c]pyridin-3-yl)-2-(1-(4-fluorophenyl)cyclopropoxy)phenyl)-1,1-difluoromethane-sulfonamide]"
> 10 µM,> 10 µM,"C[C@H](Oc1cc(-c2nn(C)c3c(-c4cnn(C5CCC(F)(F)C5)c4)cnc(N)c23)ccc1NS(=O)(=O)C(F)F)c1ccc(F)cc1 (stereo partly drawn) [Compound 120, N-(4-{4-amino-7-[1-(3,3-difluorocyclopentyl)-1H-pyrazol-4-yl]-1-methyl-1H-pyrazolo[4,3-c]pyridin-3-yl}-2-[(1S)-1-(4-fluorophenyl)ethoxy]phenyl)-1,1-difluoromethanesulfonamide]"

# Second part, the compound before the results:
SMILES,Kd (human RIPK1),Kd (human RIPK3)
"C[C@H](Oc1cc(-c2nn(C)c3c(-c4ccc(N5CCN(C)CC5)nc4)cnc(N)c23)ccc1NS(=O)(=O)C(F)F)c1ccc(F)cc1 [Compound 107, (S)-N-(4-(4-amino-1-methyl-7-(6-(4-methylpiperazin-1-yl)pyridin-3-yl)-1H-pyrazolo[4,3-c]pyridin-3-yl)-2-(1-(4-fluorophenyl)ethoxy)phenyl)-1,1-difluoromethanesulfonamide]",> 10 µM,> 10 µM
"C[C@H](Oc1cc(-c2nn(C)c3c(-c4cc(C#N)n(C)c4)cnc(N)c23)ccc1NS(=O)(=O)C(F)F)c1ccc(F)cc1 [Compound 83, (S)-N-(4-(4-amino-7-(5-cyano-1-methyl-1H-pyrrol-3-yl)-1-methyl-1H-pyrazolo[4,3-c]pyridin-3-yl)-2-(1-(4-fluorophenyl)ethoxy)phenyl)-1,1-difluoromethanesulfonamide]",> 10 µM,> 10 µM
"C[C@H](Oc1cc(-c2nn(C)c3c(-c4cnc(N5CCCC5)nc4)cnc(N)c23)ccc1NS(=O)(=O)C(F)F)c1ccc(F)cc1 [Compound 114, (S)-N-(4-(4-amino-1-methyl-7-(2-(pyrrolidin-1-yl)pyrimidin-5-yl)-1H-pyrazolo[4,3-c]pyridin-3-yl)-2-(1-(4-fluorophenyl)ethoxy)phenyl)-1,1-difluoromethanesulfonamide]",> 10 µM,> 10 µM
"Cc1noc(C)c1-c1cnc(N)c2c(-c3ccc(NS(=O)(=O)C(F)F)c(O[C@@H](C)c4ccc(F)cc4)c3)nn(C)c12 [Compound 33, (S)-N-(4-(4-amino-7-(3,5-dimethylisoxazol-4-yl)-1-methyl-1H-pyrazolo[4,3-c]pyridin-3-yl)-2-(1-(4-fluorophenyl)ethoxy)phenyl)-1,1-difluoromethanesulfonamide]",> 10 µM,> 10 µM
"C[C@H](Oc1cc(-c2nn(C)c3c(-c4cnn(C5CCCNCC5)c4)cnc(N)c23)ccc1NS(=O)(=O)C(F)F)c1ccc(F)cc1 (stereo partly drawn) [Compound 74, N-(4-(4-amino-7-(1-(azepan-4-yl)-1H-pyrazol-4-yl)-1-methyl-1H-pyrazolo[4,3-c]pyridin-3-yl)-2-((S)-1-(4-fluorophenyl)ethoxy)phenyl)-1,1-difluoromethane-sulfonamide]",> 10 µM,> 10 µM
"C[C@H](Oc1cc(-c2nn(C)c3c(-c4cnn5c4CN(C)CC5)cnc(N)c23)ccc1NS(=O)(=O)C(F)F)c1ccc(F)cc1 [Compound 91, (S)—N-(4-(4-amino-1-methyl-7-(5-methyl-4,5,6,7-tetrahydropyrazolo[1,5-a]pyrazin-3-yl)-1H-pyrazolo[4,3-c]pyridin-3-yl)-2-(1-(4-fluorophenyl)ethoxy)phenyl)-1,1-difluoromethanesulfonamide]",> 10 µM,> 10 µM
"CC(C)n1nc(-c2ccc(NS(=O)(=O)C(F)F)c(O[C@@H](C)c3ccc(F)cc3)c2)c2c(N)ncc(-c3cnn(C)c3)c21 [Compound 52, (S)-N-(4-(4-amino-1-isopropyl-7-(1-methyl-1H-pyrazol-4-yl)-1H-pyrazolo[4,3-c]pyridin-3-yl)-2-(1-(4-fluorophenyl)ethoxy)phenyl)-1,1-difluoromethane-sulfonamide]",> 10 µM,> 10 µM
"COc1cc(-c2cnc(N)c3c(-c4ccc(NS(=O)(=O)C(F)F)c(O[C@@H](C)c5ccc(F)cc5)c4)nn(C)c23)ccn1 [Compound 27, (S)-N-(4-(4-amino-7-(2-methoxypyridin-4-yl)-1-methyl-1H-pyrazolo[4,3-c]pyridin-3-yl)-2-(1-(4-fluorophenyl)ethoxy)phenyl)-1,1-difluoromethanesulfonamide]",> 10 µM,> 10 µM
"Nc1n[nH]c2ccnc(-c3ccc(NS(=O)(=O)CC(F)(F)F)c(OCc4ccc(F)cc4)c3)c12 [Compound 65, N-(4-(3-amino-1H-pyrazolo[4,3-c]pyridin-4-yl)-2-((4-fluorophenyl)methoxy)phenyl)-2,2,2-trifluoroethane-1-sulfonamide]",> 10 µM,> 10 µM
"C[C@H](Oc1cc(-c2nn(C)c3c(-c4ccc(Cl)cc4)cnc(N)c23)ccc1NS(=O)(=O)C(F)F)c1ccc(F)cc1 [Compound 87, (S)-N-(4-(4-amino-7-(4-chlorophenyl)-1-methyl-1H-pyrazolo[4,3-c]pyridin-3-yl)-2-(1-(4-fluorophenyl)ethoxy)phenyl)-1,1-difluoromethanesulfonamide]",> 10 µM,> 10 µM
"C[C@H](Oc1cc(-c2nn(C)c3c(-c4ccccc4Cl)cnc(N)c23)ccc1NS(=O)(=O)C(F)F)c1ccc(F)cc1 [Compound 85, (S)-N-(4-(4-amino-7-(2-chlorophenyl)-1-methyl-1H-pyrazolo[4,3-c]pyridin-3-yl)-2-(1-(4-fluorophenyl)ethoxy)phenyl)-1,1-difluoromethanesulfonamide]",> 10 µM,> 10 µM
"C[C@H](Oc1cc(-c2nn(C)c3c(-c4ccnc(C(F)(F)F)c4)cnc(N)c23)ccc1NS(=O)(=O)C(F)F)c1ccc(F)cc1 [Compound 23, (S)-N-(4-(4-amino-1-methyl-7-(2-(trifluoromethyl)pyridin-4-yl)-1H-pyrazolo[4,3-c]pyridin-3-yl)-2-(1-(4-fluorophenyl)ethoxy)phenyl)-1,1-difluoromethanesulfonamide]",> 10 µM,> 10 µM
"C[C@H](Oc1cc(-c2nn(C)c3c(-c4ccccc4)cnc(N)c23)ccc1NS(=O)(=O)C(F)F)c1ccc(F)cc1 [Compound 86, (S)-N-(4-(4-amino-1-methyl-7-phenyl-1H-pyrazolo[4,3-c]pyridin-3-yl)-2-(1-(4-fluorophenyl)ethoxy)phenyl)-1,1-difluoromethanesulfonamide]",> 10 µM,> 10 µM
"C[C@H](Oc1cc(-c2nn(C)c3c(-c4ccnc(C(F)F)c4)cnc(N)c23)ccc1NS(=O)(=O)C(F)F)c1ccc(F)cc1 [Compound 57, (S)-N-(4-(4-amino-7-(2-(difluoromethyl)pyridin-4-yl)-1-methyl-1H-pyrazolo[4,3-c]pyridin-3-yl)-2-(1-(4-fluorophenyl)ethoxy)phenyl)-1,1-difluoromethanesulfonamide]",> 10 µM,0.1 to 10 µM
